One block for each substance: values may come before it.
What was measured:
MMP-2 [1] = experiment: Substrate phage display with NGS: relative probability (RP) of P3-P1' tetramer clusters; assay type: biochemical, human; conditions: MMP2;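 also: ratio of tetramer probability after protease selection to that in naive phage library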
MMP-9 = MMP-9 (Homo sapiens, UniProt P14780); experiment: K(obs) of individual phage substrates (set of 1369); assay type: biochemical; conditions: MMP9
MMP-2 [2] = molecular target: T1, MMP-2 (Homo sapiens, UniProt P08253); experiment: as above; assay type: biochemical; conditions: MMP2
T1 sequence (P08253 110-660): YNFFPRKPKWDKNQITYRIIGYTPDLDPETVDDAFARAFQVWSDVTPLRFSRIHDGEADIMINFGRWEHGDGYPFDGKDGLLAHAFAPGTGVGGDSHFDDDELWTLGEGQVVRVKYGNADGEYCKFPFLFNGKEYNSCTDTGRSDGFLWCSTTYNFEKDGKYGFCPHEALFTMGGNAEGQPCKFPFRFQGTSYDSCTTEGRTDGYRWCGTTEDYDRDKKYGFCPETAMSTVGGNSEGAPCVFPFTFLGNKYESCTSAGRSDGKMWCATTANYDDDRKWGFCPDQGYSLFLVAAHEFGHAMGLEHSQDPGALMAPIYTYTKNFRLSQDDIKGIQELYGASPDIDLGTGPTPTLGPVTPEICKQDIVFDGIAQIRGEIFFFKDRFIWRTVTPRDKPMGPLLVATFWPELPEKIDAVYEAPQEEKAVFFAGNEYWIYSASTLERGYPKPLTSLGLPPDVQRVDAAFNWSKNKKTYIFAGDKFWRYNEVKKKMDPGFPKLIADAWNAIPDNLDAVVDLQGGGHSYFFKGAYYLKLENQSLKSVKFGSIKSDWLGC

[3] = RP of the P3-P1' tetramer contained in the substrate
[4] = individual phage substrate of the set of 1369 peptides, dash in the sequence marks the cleavage position
[5] = individual phage substrate of the set of 1369 peptides, cleavage position marked by '-'
[6] = RP of the P3-P1' tetramer contained in the substrate (substrate phage display with NGS)
[7] = individual phage substrates, set of 1369 peptides, hyphen in sequence marks cleavage position
[8] = individual phage substrates, set of 1369 peptides, cleavage position marked by hyphen in sequence
[9] = individual phage substrates, set of 1369 peptides, dash in sequence marks cleavage position
[10] = individual phage substrate from the set of 1369 peptides, cleavage position marked by the dash in the sequence
[11] = individual phage substrates, set of 1369 peptides, '-' marks the cleavage position (P1-P1')
[12] = individual phage substrates, set of 1369 peptides, cleavage position marked by '-' in the sequence

MMP-9, sequence (P14780 94-707): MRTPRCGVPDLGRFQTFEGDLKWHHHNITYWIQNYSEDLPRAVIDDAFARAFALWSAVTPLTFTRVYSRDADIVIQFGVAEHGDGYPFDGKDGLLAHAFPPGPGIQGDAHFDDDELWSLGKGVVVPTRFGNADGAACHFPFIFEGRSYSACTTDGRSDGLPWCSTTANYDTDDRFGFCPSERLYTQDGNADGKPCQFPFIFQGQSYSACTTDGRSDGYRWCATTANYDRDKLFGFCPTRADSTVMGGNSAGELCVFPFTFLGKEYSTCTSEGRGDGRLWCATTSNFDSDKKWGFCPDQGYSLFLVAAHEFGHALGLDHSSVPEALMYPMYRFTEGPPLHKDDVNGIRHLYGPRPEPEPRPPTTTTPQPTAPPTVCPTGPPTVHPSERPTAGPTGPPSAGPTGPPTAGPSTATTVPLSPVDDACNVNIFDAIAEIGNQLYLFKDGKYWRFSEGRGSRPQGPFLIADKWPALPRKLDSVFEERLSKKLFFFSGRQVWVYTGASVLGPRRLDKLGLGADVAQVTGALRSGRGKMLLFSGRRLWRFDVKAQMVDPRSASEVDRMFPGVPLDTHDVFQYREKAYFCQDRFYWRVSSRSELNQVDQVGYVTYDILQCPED

Substance: SGPRG-QVFTA
- relative probability (RP) (MMP-2 [1]; [3]): 29.4864
- Kobs (MMP-9; [4]): 8941.32 M⁻¹ s⁻¹
- Kobs (MMP-2 [2]; [5]): 12792.1 M⁻¹ s⁻¹

Substance: ARLGY-LTASG
- relative probability (RP) (MMP-2 [1]; [3]): 24.8925
- Kobs (MMP-9; [4]): 418.952 M⁻¹ s⁻¹
- Kobs (MMP-2 [2]; [5]): 10866.7 M⁻¹ s⁻¹

Substance: SYALH-LTASG
- relative probability (RP) (MMP-2 [1]; [3]): 14.6488
- Kobs (MMP-9; [4]): 3964.21 M⁻¹ s⁻¹
- Kobs (MMP-2 [2]; [5]): 12792.1 M⁻¹ s⁻¹

Substance: SGHQN-LMATA
- relative probability (RP) (MMP-2 [1]; [6]): 17.7487
- Kobs (MMP-9; [7]): 1561.44 M⁻¹ s⁻¹
- Kobs (MMP-2 [2]; [8]): 7386.83 M⁻¹ s⁻¹

Substance: SGLGT-LSKTA
- relative probability (RP) (MMP-2 [1]; [6]): 24.6198
- Kobs (MMP-9; [7]): 0 M⁻¹ s⁻¹
- Kobs (MMP-2 [2]; [8]): 836.403 M⁻¹ s⁻¹

Substance: GKLKH-LQTAS
- relative probability (RP) (MMP-2 [1]; [6]): 11.1441
- Kobs (MMP-9; [7]): 0 M⁻¹ s⁻¹
- Kobs (MMP-2 [2]; [8]): 726.013 M⁻¹ s⁻¹

Substance: RLPVH-YTASG
- relative probability (RP) (MMP-2 [1]; [3]): 23.3589
- Kobs (MMP-9; [4]): 12792.1 M⁻¹ s⁻¹
- Kobs (MMP-2 [2]; [5]): 7815.03 M⁻¹ s⁻¹

Substance: SGWSG-MMATA
- relative probability (RP) (MMP-2 [1]; [6]): 18.3143
- Kobs (MMP-9; [7]): 171.876 M⁻¹ s⁻¹
- Kobs (MMP-2 [2]; [8]): 1112.44 M⁻¹ s⁻¹

Substance: SGPRP-LLATA
- relative probability (RP) (MMP-2 [1]; [3]): 34.3303
- Kobs (MMP-9; [4]): 12792.1 M⁻¹ s⁻¹
- Kobs (MMP-2 [2]; [5]): 12792.1 M⁻¹ s⁻¹

Substance: SGMLS-LVITA
- Kobs (MMP-9; [11]): 0 M⁻¹ s⁻¹
- Kobs (MMP-2 [2]; [12]): 0 M⁻¹ s⁻¹

Substance: RDVLW-LTASG
- Kobs (MMP-9; [11]): 6688.74 M⁻¹ s⁻¹
- Kobs (MMP-2 [2]; [12]): 3964.21 M⁻¹ s⁻¹

Substance: GSGSD-LKSKT
- Kobs (MMP-9; [9]): 355.093 M⁻¹ s⁻¹
- Kobs (MMP-2 [2]; [10]): 12792.1 M⁻¹ s⁻¹

Substance: TMPYL-LTASG
- Kobs (MMP-9; [9]): 7815.03 M⁻¹ s⁻¹
- Kobs (MMP-2 [2]; [10]): 1870.4 M⁻¹ s⁻¹

Substance: TALGY-LTASG
- Kobs (MMP-9; [11]): 323.705 M⁻¹ s⁻¹
- Kobs (MMP-2 [2]; [12]): 12792.1 M⁻¹ s⁻¹

Substance: MKPVN-LTASG
- Kobs (MMP-9; [11]): 12792.1 M⁻¹ s⁻¹
- Kobs (MMP-2 [2]; [12]): 12792.1 M⁻¹ s⁻¹

Substance: YRVAF-LTASG
- Kobs (MMP-9; [11]): 5090.5 M⁻¹ s⁻¹
- Kobs (MMP-2 [2]; [12]): 7015.91 M⁻¹ s⁻¹

Substance: SGPLA-STVTA
- Kobs (MMP-9; [11]): 3741.87 M⁻¹ s⁻¹
- Kobs (MMP-2 [2]; [12]): 0 M⁻¹ s⁻¹

Substance: GVAKP-LWTAS
- Kobs (MMP-9; [11]): 2280.5 M⁻¹ s⁻¹
- Kobs (MMP-2 [2]; [12]): 484.315 M⁻¹ s⁻¹

Substance: SGPMS-LRMTA
- Kobs (MMP-9; [11]): 12792.1 M⁻¹ s⁻¹
- Kobs (MMP-2 [2]; [12]): 7386.83 M⁻¹ s⁻¹

Substance: GKVNN-LVTAS
- Kobs (MMP-9; [11]): 201.585 M⁻¹ s⁻¹
- Kobs (MMP-2 [2]; [12]): 517.582 M⁻¹ s⁻¹

Substance: VAISR-LTASG
- Kobs (MMP-9; [9]): 113.394 M⁻¹ s⁻¹
- Kobs (MMP-2 [2]; [10]): 12792.1 M⁻¹ s⁻¹

Substance: GTLLD-LITAS
- Kobs (MMP-9; [11]): 0 M⁻¹ s⁻¹
- Kobs (MMP-2 [2]; [12]): 0 M⁻¹ s⁻¹

Substance: FMYSH-LTASG
- Kobs (MMP-9; [9]): 0 M⁻¹ s⁻¹
- Kobs (MMP-2 [2]; [10]): 7815.03 M⁻¹ s⁻¹

More lines, main results first:

- Kobs (MMP-9; [7]): 201.585 M⁻¹ s⁻¹
- Kobs (MMP-2 [2]; [8]): 0 M⁻¹ s⁻¹
Substance: RKVRN-WTASG
- relative probability (RP) (MMP-2 [1]; [6]): 17.7682

- Kobs (MMP-9; [7]): 0 M⁻¹ s⁻¹
- Kobs (MMP-2 [2]; [8]): 231.616 M⁻¹ s⁻¹
Substance: GSVWH-VRTAS
- relative probability (RP) (MMP-2 [1]; [6]): 0

- Kobs (MMP-9; [4]): 3253.29 M⁻¹ s⁻¹
- Kobs (MMP-2 [2]; [5]): 6396.07 M⁻¹ s⁻¹
Substance: GTALP-LRTAS
- relative probability (RP) (MMP-2 [1]; [3]): 22.1772

- Kobs (MMP-9; [7]): 0 M⁻¹ s⁻¹
- Kobs (MMP-2 [2]; [8]): 836.403 M⁻¹ s⁻¹
Substance: SGISY-MRITA
- relative probability (RP) (MMP-2 [1]; [6]): 22.3091

- Kobs (MMP-9; [9]): 0 M⁻¹ s⁻¹
- Kobs (MMP-2 [2]; [10]): 0 M⁻¹ s⁻¹
Substance: SGLAR-LSMTA

- Kobs (MMP-9; [11]): 12792.1 M⁻¹ s⁻¹
- Kobs (MMP-2 [2]; [12]): 12792.1 M⁻¹ s⁻¹
Substance: HRPFG-LTASG

- Kobs (MMP-9; [11]): 3079.62 M⁻¹ s⁻¹
- Kobs (MMP-2 [2]; [12]): 292.668 M⁻¹ s⁻¹
Substance: SGAWN-MRVTA

- Kobs (MMP-9; [9]): 113.394 M⁻¹ s⁻¹
- Kobs (MMP-2 [2]; [10]): 0 M⁻¹ s⁻¹
Substance: TGSWP-LTASG

- Kobs (MMP-9; [11]): 4335.13 M⁻¹ s⁻¹
- Kobs (MMP-2 [2]; [12]): 8321.48 M⁻¹ s⁻¹
Substance: TSVLA-LTASG

- Kobs (MMP-9; [11]): 0 M⁻¹ s⁻¹
- Kobs (MMP-2 [2]; [12]): 5269.78 M⁻¹ s⁻¹
Substance: SSYAH-LTASG

- Kobs (MMP-9; [11]): 10866.7 M⁻¹ s⁻¹
- Kobs (MMP-2 [2]; [12]): 2476.66 M⁻¹ s⁻¹
Substance: SGPLT-LNSTA

- Kobs (MMP-9; [11]): 4470.66 M⁻¹ s⁻¹
- Kobs (MMP-2 [2]; [12]): 6688.74 M⁻¹ s⁻¹
Substance: TMAHP-LTASG

- Kobs (MMP-9; [11]): 12792.1 M⁻¹ s⁻¹
- Kobs (MMP-2 [2]; [12]): 12792.1 M⁻¹ s⁻¹
Substance: VPPMP-LTASG

- Kobs (MMP-9; [11]): 2218.08 M⁻¹ s⁻¹
- Kobs (MMP-2 [2]; [12]): 7815.03 M⁻¹ s⁻¹
Substance: PGIAN-LTASG

- Kobs (MMP-9; [9]): 0 M⁻¹ s⁻¹
- Kobs (MMP-2 [2]; [10]): 0 M⁻¹ s⁻¹
Substance: SGSYP-LTRTA
